26 compounds from patent US20140243374A1, “Novel Sulfonamides” (The Brigham and Women's Hospital, Inc., priority 2011, published 2014) can be followed below.

Several values for one entry are separate records, joined by “and”; a condition that tells them apart may be missing. Equal entries are not always repeated.

Series [1] has as its target T1, γ-secretase (cleavage of APP, Aβ42) (Homo sapiens, UniProt P49768).
T1 construct: endogenous in cells; host or cells: HEK AP-GL-T16 luciferase reporter cells (tetracycline-induced APP substrate)
In words: Aβ (1-42) cellular assay (Aβ ELISA, HEK AP-GL-T1 6 cells). The format is cell-based. Particulars: for inhibition at 1 µM: at 1 μM (concentration in brackets); for IC50: cellular Aβ42 ELISA, 24 h compound treatment. Summed up: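 HEK AP-GL-T1 6 cells, with APP processing induced by tetracycline at compound addition 24 h post-plating. After 24 h of treatment, Aβ42 in conditioned medium (protease inhibitors added, frozen) was quantified by fluorometric sandwich ELISA (ex 460/em 560 nm) against an Aβ peptide standard curve.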
For orientation: ELISA stands for enzyme-linked immunosorbent assay.

The target of series [2] is T2, γ-secretase (Notch cleavage activity) (Homo sapiens, UniProt P49768).
T2 construct: endogenous in cells; host or cells: SUP-T1 cells
Put plainly: Cleaved Notch1 Sandwich ELISA (SUP-T1 cell line). The format is cell-based. As to conditions: for IC50: SUP-T1 cells, 16 h; for Notch Elisa/Aβ42: ratio Notch Elisa IC50 to Aβ42 IC50. Summed up:
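SUP-T1 cells endogenously express a truncated Notch fragment that serves as γ-secretase substrate. Cells at 1.0×10^6 cells/mL in RPMI-1640 with 10% FBS were treated 16 h with serially diluted compounds in DMSO. Cleaved Notch intracellular domain was quantified by sandwich ELISA on equal protein amounts.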

The term melting point denotes the temperature of the solid-liquid transition. Consider `COc1ccc(CN(C2CCOCC2)S(=O)(=O)c2ccc(Cl)cc2)cc1C(=O)O` [Example 8, 5-((4-Chloro-N-(tetrahydro-2H-pyran-4-yl)phenylsulfonamido)methyl)-2-methoxy-benzoic acid], for which the melting point lay in the range of 174 to 176 °C. In addition, the inhibition at 1 µM in series [1] (read-out: Aβ42 % Inh) was 0%.
In the case of `O=C(O)c1ccc(CN(C2CCCCC2)S(=O)(=O)c2ccc(F)cc2)cc1` [Example 9, 4-((N-cyclohexyl-4-fluorophenylsulfonamido)methyl)benzoic acid], the melting point was 218 to 220 °C. The inhibition at 1 µM in series [1] (read-out: Aβ42 % Inh) was 0%.
For `CSc1ccc(CN(C2CCOCC2)S(=O)(=O)c2ccc(Cl)cc2)cc1` [Example 10, 4-Chloro-N-(4-(methylthio)benzyl)-N-(tetrahydro-2H-pyran-4-yl)benzene-sulfonamide], the melting point was in the range of 124 to 127 °C. The inhibition at 1 µM in series [1] (read-out: Aβ42 % Inh) was found to be 0%.
Compound `CS(=O)(=O)c1ccc(CN(C2CCOCC2)S(=O)(=O)c2ccc(Cl)cc2)cc1` [Example 11, 4-Chloro-N-(4-(methylsulfonyl)benzyl)-N-(tetrahydro-2H-pyran-4-yl)benzene-sulfonamide] displayed a melting point of 158 to 160 °C. Besides, in series [1] (read-out: Aβ42 % Inh), the inhibition at 1 µM was determined as 0%.
The compound `O=S(=O)(c1ccc(Cl)cc1)N(Cc1ccc(OC2CCOCC2)nc1)C1CCOCC1` [Example 13, 4-Chloro-N-(tetrahydro-2H-pyran-4-yl)-N-((6-(tetrahydro-2H-pyran-4-yloxy)-pyridin-3-yl)methyl)benzenesulfonamide] showed a melting point of 123 to 125 °C. Moreover, in series [1] (read-out: Aβ42 % Inh), the inhibition at 1 µM was found to be 0%.
`COC(=O)c1cc(CN(CC2CCOCC2)S(=O)(=O)c2ccc(Cl)cc2)ccc1OC` [Example 16, Methyl 5-((4-chloro-N-((tetrahydro-2H-pyran-4-yl)methyl)phenylsulfonamido)-methyl)-2-methoxybenzoate] returned a melting point of 118 to 119 °C. Moreover, the inhibition at 1 µM in series [1] (read-out: Aβ42 % Inh) was 0%.
Compound `COc1ccc(CN(CC2CCOCC2)S(=O)(=O)c2ccc(Cl)cc2)cc1C(=O)O` [Example 17, 5-((4-Chloro-N-((tetrahydro-2H-pyran-4-yl)methyl)phenylsulfonamido)methyl)-2-methoxybenzoic acid] came in with a melting point of 158 to 159 °C. In addition, the inhibition at 1 µM in series [1] (read-out: Aβ42 % Inh) came to 14%.
`COC(=O)c1ccc(CN(CC2CCOCC2)S(=O)(=O)c2ccc(Cl)cc2)cc1` [Example 18, Methyl 4-((4-chloro-N-((tetrahydro-2H-pyran-4-yl)methyl)phenylsulfonamido)-methyl)benzoate] yielded a melting point of 115 to 117 °C. Also, in series [1] (read-out: Aβ42 % Inh), the inhibition at 1 µM came to 94%.
In the same order, the values of `O=C(O)c1ccc(CN(CC2CCOCC2)S(=O)(=O)c2ccc(Cl)cc2)cc1` [Example 19, 4-((4-Chloro-N-((tetrahydro-2H-pyran-4-yl)methyl)phenylsulfonamido)methyl)-benzoic acid] are 188 to 190 °C and 13%.
Compound `CC[C@H](C1CCCC1)N(Cc1ccc(C(=O)OC)cc1)S(=O)(=O)c1ccc(Cl)cc1` [Example 22, (R)-Methyl 4-((4-chloro-N-(1-cyclopentylpropyl)phenylsulfonamido)methyl)benzoate] gave a melting point of 81 to 83 °C. For the same compound, in series [1] (read-out: Aβ42 % Inh), the inhibition at 1 µM was 0%.
For `CC[C@H](C1CCCC1)N(Cc1ccc(C(=O)O)cc1)S(=O)(=O)c1ccc(Cl)cc1` [Example 23, (R)-4-((4-Chloro-N-(1-cyclopentylpropyl)phenylsulfonamido)methyl)benzoic acid], the melting point is 67 to 69 °C. In series [1] (read-out: Aβ42 % Inh), the inhibition at 1 µM was found to be 0%.
As to `O=C(O)c1ccc(CN(C2CCCCC2O)S(=O)(=O)c2ccc(Cl)cc2)cc1` (stereo not shown) [Example 24, 4-((4-Chloro-N-(2-hydroxycyclohexyl)phenylsulfonamido)methyl)benzoic acid], the melting point fell in the range of 218 to 219 °C. For the same compound, in series [1] (read-out: Aβ42 % Inh), the inhibition at 1 µM is 51%.
Usually IC50 stands for the point on the concentration scale where inhibition reaches its midpoint. Read a low IC50 as inhibition by little substance. In turn, `COC(=O)c1ccc(CN(C2CCCCC2O)S(=O)(=O)c2ccc(Cl)cc2)cc1` (stereo not shown) [Example 25, Methyl 4-((4-chloro-N-(2-hydroxycyclohexyl)phenylsulfonamido)methyl)benzoate] had a melting point of 162 to 164 °C. The same compound yielded an IC50 in series [1] of 17.8 nM.
`N#Cc1ccc(CN(C2CCC2)S(=O)(=O)c2ccc(Cl)cc2)c(F)c1` [Example 26, 4-Chloro-N-(4-cyano-2-fluorobenzyl)-N-cyclobutylbenzenesulfonamide] registered a melting point of 125 to 127 °C. Moreover, in series [1] (read-out: Aβ42 % Inh), the inhibition at 1 µM was determined as 54%.
Consider `Cc1ccc(S(=O)(=O)N(Cc2ccc(C#N)cc2F)C2CCC2)cc1` [Example 27, N-(4-Cyano-2-fluorobenzyl)-N-cyclobutyl-4-methylbenzenesulfonamide], for which the melting point was 146 to 147 °C. For the same compound, the inhibition at 1 µM in series [1] (read-out: Aβ42 % Inh) was 37%.
As to `N#Cc1ccc(CN(C2CCCC2)S(=O)(=O)c2ccc(Cl)cc2)c(F)c1` [Example 28, 4-Chloro-N-(4-cyano-2-fluorobenzyl)-N-cyclopentylbenzenesulfonamide], the melting point lay within 176 to 177 °C. This compound also came in with an IC50 in series [1] of 301 nM.
Take `Cc1ccc(S(=O)(=O)N(Cc2ccc(C#N)cc2F)C2CCCC2)cc1` [Example 29, N-(4-Cyano-2-fluorobenzyl)-N-cyclopentyl-4-methylbenzenesulfonamide]: the melting point lay in the range of 178 to 179 °C. For the same compound, the inhibition at 1 µM in series [1] (read-out: Aβ42 % Inh) was 0%.
In the same order, the values of `O=C(O)c1ccc(CN([C@H]2CCCC[C@@H]2O)S(=O)(=O)c2ccc(Cl)cc2)cc1` [Example 30, 4-((4-Chloro-N-((1S,2S)-2-hydroxycyclohexyl)phenylsulfonamido)methyl)benzoic acid] are 218 to 219 °C and 15%.
In turn, `COC(=O)c1ccc(CN([C@H]2CCCC[C@@H]2O)S(=O)(=O)c2ccc(Cl)cc2)cc1` [Example 31, Methyl 4-((4-chloro-N-((1S,2S)-2-hydroxycyclohexyl)phenylsulfonamido)methyl)benzoate] yielded a melting point of 150 to 152 °C. This compound also returned an IC50 in series [1] of 199 nM.
`CC1CCCCC1N(Cc1ccc(C(=O)NC(C)(C)C(=O)O)cc1)S(=O)(=O)c1ccc(C(F)(F)F)nc1` (stereo not shown) [Example 33, 2-Methyl-2-(4-((N-(2-methylcyclohexyl)-6-(trifluoromethyl)pyridine-3-sulfonamido)methyl)benzamido)propanoicacid]: the melting point fell in the range of 131 to 132 °C. Also, the inhibition at 1 µM in series [1] (read-out: Aβ42 % Inh) worked out at 56%.
The compound `O=C(O)c1ccc(CN(C2CCCCC2)S(=O)(=O)c2ccc(Cl)cc2)cc1` [Example 45, 4-((4-chloro-N-cyclohexylphenylsulfonamido)methyl)benzoic acid] returned a melting point of 135 to 137 °C. Also, in series [1], the IC50 was 216 nM and 47.4 nM and 180 nM. In series [2], it took 35.9 µM to reach half-maximal inhibition (IC50) and the “Notch Elisa/Aβ42” value turned out to be 243.
Turning to `O=C(O)c1ccc(CN(C2CCCCC2O)S(=O)(=O)c2ccc(Cl)cc2)c(F)c1F` (stereo not shown) [Example 67, 4-((4-Chloro-N-(2-hydroxycyclohexyl)phenylsulfonamido)methyl)-2,3-difluorobenzoic acid], the melting point lay in the range of 134 to 136 °C. For the same compound, the inhibition at 1 µM in series [1] (read-out: Aβ42 % Inh) amounted to 11%.
`O=C(O)c1ccc(CN(C2CCCCC2)S(=O)(=O)c2ccc(Cl)cc2)c(F)c1F` [Example 71, 4-((4-Chloro-N-cyclohexylphenylsulfonamido)methyl)-2,3-difluorobenzoic acid] returned a melting point of 111 to 112 °C. In series [1], this compound showed an IC50 of 519 nM.
Turning to `O=C(O)c1ccc(CN(C2CCCCC2F)S(=O)(=O)c2ccc(Cl)cc2)c(F)c1F` (stereo not shown) [Example 72, 4-((4-Chloro-N-(2-fluorocyclohexyl)phenylsulfonamido)methyl)-2,3-difluorobenzoic acid], the melting point lay in the range of 108 to 109 °C. In series [1], this compound displayed an IC50 of 48.5 nM. In series [2], the 50% inhibitory concentration (IC50) came to 3.54 µM and the “Notch Elisa/Aβ42” value was 73.
The compound `C[C@H](CO)NC(=O)c1ccc(CN(C2CCCCC2F)S(=O)(=O)c2ccc(Cl)cc2)c(F)c1F` (stereo partly drawn) [Example 77, 4-((4-Chloro-N-(2-fluorocyclohexyl)phenylsulfonamido)methyl)-2,3-difluoro-N—((R)-1-hydroxypropan-2-yl)benzamide] registered a melting point of 126 to 128 °C. Further, the IC50 in series [1] is 4.24 nM and 3.36 nM. Besides, in series [2], the IC50 was 1.02 µM and the “Notch Elisa/Aβ42” value came to 268.
`O=C(O)c1ccc(CN(C2CCCCC2Cl)S(=O)(=O)c2ccc(Cl)cc2)cc1` (stereo not shown) [Example 81, 4-((4-Chloro-N-(2-chlorocyclohexyl)phenylsulfonamido)methyl)benzoic acid] gave a melting point of 158 to 160 °C. Moreover, the inhibition at 30 µM in series [1] (at 30 μM (concentration in brackets), read-out: Aβ42 % Inh) was determined as 0%.
